Literature values as cited in patent US20230329971A1, “MEDICINAL PRODUCT COMPRISING A FLEXIBLE PLASTIC BAG AND AN AQUEOUS, READY-TO-USE SOLUTION OF MIDAZOLAM” (B. Braun Melsungen AG, priority 2020, published 2023).

Settings: in aqueous 5% dextrose solution or aqueous 0.9% sodium chloride solution

Cc1ncc2n1-c1ccc(Cl)cc1C(c1ccccc1F)=NC2.Cl [midazolam hydrochloride, 8-chloro-6-(2-fluorophenyl)-1-methyl-4H-imidazo [1,5-a] [1, 4] benzodiazepine hydrochloride]
stable over: 30 days
